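Exposure lasted 48 hours, with cells grown in 96-well plates and compounds tested at five concentrations. GI50 marks 50% less growth. TGI denotes the concentration required for complete inhibition of growth.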
Assays:
Assay in all cases: NCI-60 cell line screen, 48 h
A498 renal = system: A498 renal
ACHN renal = system: ACHN renal
EKVX NSCLC = system: EKVX NSCLC
HCC-2998 colon = system: HCC-2998 colon
NCI-H460 lung = system: NCI-H460 lung
RXF 393 renal = system: RXF 393 renal
SF-539 CNS = system: SF-539 CNS
U251 CNS = system: U251 CNS
UACC-257 melanoma = system: UACC-257 melanoma
MOLT-4 leukemia = system: MOLT-4 leukemia

Nc1nc2nc3c(nc2c(=O)[nH]1)CN(c1ccc(C(=O)O)cc1)C3=O
TGI (A498 renal): > 100 µM | TGI (ACHN renal): > 100 µM | TGI (EKVX NSCLC): > 100 µM | TGI (HCC-2998 colon): > 100 µM | TGI (NCI-H460 lung): > 100 µM | TGI (RXF 393 renal): > 100 µM | TGI (SF-539 CNS): > 100 µM | TGI (U251 CNS): > 100 µM | TGI (UACC-257 melanoma): > 100 µM

COC(=O)C1Cc2c([nH]c3ccccc23)[C@H](CC(C)C)N1 (stereo partly specified)
TGI (A498 renal): > 100 µM | TGI (ACHN renal): > 100 µM | TGI (EKVX NSCLC): > 100 µM | TGI (HCC-2998 colon): > 100 µM | TGI (MOLT-4 leukemia): > 100 µM | TGI (RXF 393 renal): > 100 µM | TGI (SF-539 CNS): > 100 µM | TGI (U251 CNS): > 100 µM | TGI (UACC-257 melanoma): > 100 µM

CC1CN(CCO)CC(C)O1 (stereo unspecified)
TGI (A498 renal): > 100 µM | TGI (ACHN renal): > 100 µM | TGI (EKVX NSCLC): > 100 µM | TGI (HCC-2998 colon): > 100 µM | TGI (MOLT-4 leukemia): > 100 µM | TGI (NCI-H460 lung): > 100 µM | TGI (RXF 393 renal): > 100 µM | TGI (SF-539 CNS): > 100 µM | TGI (U251 CNS): > 100 µM | TGI (UACC-257 melanoma): > 100 µM

CCCCC1(N=[N+]=[N-])C(=O)c2cccc3c2N(CCC3)C1=O (stereo unspecified)
TGI (A498 renal): > 100 µM | TGI (ACHN renal): > 100 µM | TGI (EKVX NSCLC): > 100 µM | TGI (HCC-2998 colon): > 100 µM | TGI (MOLT-4 leukemia): > 100 µM | TGI (NCI-H460 lung): > 100 µM | TGI (RXF 393 renal): > 100 µM | TGI (SF-539 CNS): > 100 µM | TGI (U251 CNS): > 100 µM | TGI (UACC-257 melanoma): > 100 µM

COc1ccc(C(=O)/C=C/c2ccc(Cl)cc2)cc1S(N)(=O)=O
GI50 (A498 renal): 10.4 µM | TGI (A498 renal): 22.1 µM | GI50 (ACHN renal): 1.94 µM | TGI (ACHN renal): 4.12 µM | GI50 (EKVX NSCLC): 4.56 µM | TGI (EKVX NSCLC): 18.4 µM | GI50 (HCC-2998 colon): 1.78 µM | TGI (HCC-2998 colon): 3.65 µM | GI50 (MOLT-4 leukemia): 2.93 µM | TGI (MOLT-4 leukemia): 9.16 µM | GI50 (NCI-H460 lung): 2.58 µM | TGI (NCI-H460 lung): 6.39 µM | GI50 (RXF 393 renal): 1.98 µM | TGI (RXF 393 renal): 3.97 µM | GI50 (SF-539 CNS): 1.6 µM | TGI (SF-539 CNS): 3.3 µM | GI50 (U251 CNS): 1.96 µM | TGI (U251 CNS): 4.27 µM | GI50 (UACC-257 melanoma): 12.2 µM | TGI (UACC-257 melanoma): 24.9 µM

CC(C)(O)Cn1c(=O)c(Oc2ccc(F)cc2F)cc2cnc(NC3CCOCC3)nc21
GI50 (A498 renal): > 14.7 µM | TGI (A498 renal): > 25 µM | GI50 (ACHN renal): > 25 µM | TGI (ACHN renal): > 25 µM | GI50 (HCC-2998 colon): > 25 µM | TGI (HCC-2998 colon): > 25 µM | GI50 (MOLT-4 leukemia): > 25 µM | TGI (MOLT-4 leukemia): > 25 µM | GI50 (NCI-H460 lung): > 25 µM | TGI (NCI-H460 lung): > 25 µM | GI50 (RXF 393 renal): > 25 µM | TGI (RXF 393 renal): > 25 µM | GI50 (SF-539 CNS): > 25 µM | TGI (SF-539 CNS): > 25 µM | GI50 (U251 CNS): > 25 µM | TGI (U251 CNS): > 25 µM | GI50 (UACC-257 melanoma): > 25 µM | TGI (UACC-257 melanoma): > 25 µM

CC(C)c1ccc2c(c1)CCC1C(C)(C)[C@@H](O)CC[C@]21C (stereo partly specified)
TGI (ACHN renal): > 100 µM | TGI (HCC-2998 colon): 58.1 µM | TGI (MOLT-4 leukemia): 89.9 µM | TGI (NCI-H460 lung): 41.4 µM | TGI (RXF 393 renal): 54.3 µM | TGI (SF-539 CNS): 65.1 µM | TGI (U251 CNS): 52.2 µM

CCOP1(=O)OCC2OC(n3cnc4c(N)ncnc43)C(O)C2O1 (stereo unspecified)
TGI (A498 renal): > 100 µM | TGI (ACHN renal): > 100 µM | TGI (EKVX NSCLC): > 100 µM | TGI (MOLT-4 leukemia): > 100 µM | TGI (NCI-H460 lung): > 100 µM | TGI (RXF 393 renal): > 100 µM | TGI (SF-539 CNS): > 100 µM | TGI (U251 CNS): > 100 µM | TGI (UACC-257 melanoma): > 100 µM

c1ccc([CH2][Sn]([CH2]c2ccccc2)([S]c2cccc3cccnc23)[S]c2cccc3cccnc23)cc1
GI50 (A498 renal): 0.288 µM | TGI (A498 renal): 0.95 µM | GI50 (ACHN renal): 0.302 µM | TGI (ACHN renal): 0.985 µM | GI50 (EKVX NSCLC): 0.666 µM | TGI (EKVX NSCLC): 2.03 µM | GI50 (HCC-2998 colon): 0.139 µM | TGI (HCC-2998 colon): 0.334 µM | GI50 (NCI-H460 lung): 0.273 µM | TGI (NCI-H460 lung): 1.01 µM | GI50 (SF-539 CNS): 0.26 µM | TGI (SF-539 CNS): 0.662 µM | GI50 (U251 CNS): 0.341 µM | TGI (U251 CNS): 1.14 µM

From PubChem BioAssay (NCI)
